Counter-ions that a name gives are not always drawn. Like-named read-outs stand apart in the source and are kept apart here.
Key:
rat 5-HT7 receptor = rat 5-HT7 receptor (Rattus norvegicus (Rat), UniProt P32305); test: r5-HT7 binding assay, competitive radioligand binding with [3H]5-CT
Outline: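 Whole r5-HT7-transfected HEK-293 cells first received test compound for 10 min. They were then exposed to 100 nM 5-CT for 20 min before lysis and competitive immunoassay of cAMP. Affinity came from displacement of [3H]5-CT on membranes of the same recombinant line, expressed as Ki.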

r5-HT7 receptor = r5-HT7 receptor (Rattus norvegicus (Rat), UniProt P32305); test: HitHunter cAMP assay, antagonist testing against 100 nM 5-CT; assay type: cell-based
Outline: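 Competition against [3H]5-CT on rat 5-HT7 HEK-293 membranes; Ki from radioactivity. Functional: 10 min compound, 100 nM 5-CT for 20 min, cAMP immunoassay after lysis.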

h5-HT6 = h5-HT6 (Homo sapiens (Human), UniProt P50406); test: h5-HT6 binding assay with [3H]LSD on HEK-293 membranes; details: read-out: h5HT6 binding Ki
Method: Receptor binding was performed using membrane fractions prepared from the HEK-293 cell line recombinantly expressing rat 5-HT7 receptors (NCBI accession NM_022938). Compound affinity for the rat 5-HT7 receptor subtype was evaluated by competitive radioligand binding assays using 5-carboxamido[^3H]tryptamine ([^3H]5-CT) (Amersham Biosciences, cat. 90000403) detection. HitHunter™ cAMP assays are in-vitro based competitive immunoassays. The assay was performed on the HEK-293 cell line stably transfected with r5-HT7 receptor. Cells were pre-incubated with test compounds for 10 minutes. For antagonist testing, the cells were then challenged with 100 nM 5-CT for 20 minutes. Cells were then lysed and cAMP measured according to manufacturers protocol (Amersham, cat. NET791250UC) or [^3H]mesulergine (Amersham, cat. TRK1041). The assay was performed on membranes prepared from HEK-293 cells stably transfected with h5-HT6. Following centrifugation, membranes were resuspended and incubated for 60 min at room temperature with 1.7 nM [^3H]LSD in the presence of increasing concentration of test compounds. Nonspecific binding was defined in the presence of 10 μM clozapine (Tocris, cat. TRK1068). Homogenized HEK-293 membranes expressing the human SERT were incubated in 50 mM Tris-HCl (pH 7.5), 120 mM NaCl, 5 mM KCl with [^3H]-citalopram (3 nM) with or without test compounds. Nonspecific binding was determined in the presence of 10 μM fluoxetine. Radioactivity readouts and Ki values were performed as previously described for r5-HT7. […] Compounds were assayed in their free form or as salts, as indicated in the Examples section above.

human SERT = human SERT (Homo sapiens (Human), UniProt P31645); test: human SERT binding assay with [3H]-citalopram on HEK-293 membranes; details: read-out: hSERT binding Ki
h5HT2A = h5HT2A (Homo sapiens (Human), UniProt P28223); test: h5HT2A binding
h5HT2B = h5HT2B (Homo sapiens (Human), UniProt P41595); test: h5HT2B binding
h5HT2C = h5HT2C (Homo sapiens (Human), UniProt P28335); test: h5HT2C binding
[1] = rat 5-HT7 receptor, HEK-293 membranes
[2] = antagonist testing, 100 nM 5-CT challenge, HEK-293 r5-HT7, read-out: R5HT7 cAMP pKb (converted)
[3] = h5-HT6, [3H]LSD, HEK-293 membranes

h5HT2C, sequence (P28335 33-458): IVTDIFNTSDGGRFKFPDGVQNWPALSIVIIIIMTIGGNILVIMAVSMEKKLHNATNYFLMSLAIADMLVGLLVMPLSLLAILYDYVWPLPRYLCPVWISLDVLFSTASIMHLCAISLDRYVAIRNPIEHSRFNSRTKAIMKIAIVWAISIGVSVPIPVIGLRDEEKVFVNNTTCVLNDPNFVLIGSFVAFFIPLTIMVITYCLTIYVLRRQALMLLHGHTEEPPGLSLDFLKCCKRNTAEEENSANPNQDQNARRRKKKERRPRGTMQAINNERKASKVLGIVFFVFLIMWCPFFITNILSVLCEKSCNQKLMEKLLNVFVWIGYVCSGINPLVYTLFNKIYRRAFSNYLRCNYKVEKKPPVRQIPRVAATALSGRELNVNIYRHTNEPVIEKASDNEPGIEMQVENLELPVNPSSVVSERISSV
r5-HT7 receptor, sequence (P32305 1-435): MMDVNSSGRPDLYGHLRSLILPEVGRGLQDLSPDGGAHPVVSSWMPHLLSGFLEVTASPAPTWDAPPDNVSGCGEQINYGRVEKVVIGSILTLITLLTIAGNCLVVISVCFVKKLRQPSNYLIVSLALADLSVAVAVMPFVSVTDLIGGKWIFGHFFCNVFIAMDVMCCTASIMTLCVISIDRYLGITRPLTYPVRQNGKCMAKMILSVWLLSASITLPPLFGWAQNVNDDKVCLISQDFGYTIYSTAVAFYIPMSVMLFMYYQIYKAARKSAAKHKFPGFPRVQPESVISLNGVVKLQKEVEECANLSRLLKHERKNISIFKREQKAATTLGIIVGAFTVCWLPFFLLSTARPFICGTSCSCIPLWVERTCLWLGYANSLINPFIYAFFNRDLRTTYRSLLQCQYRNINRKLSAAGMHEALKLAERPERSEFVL
rat 5-HT7 receptor, sequence (P32305 1-435): as above
h5HT2B, sequence (P41595 whole entry): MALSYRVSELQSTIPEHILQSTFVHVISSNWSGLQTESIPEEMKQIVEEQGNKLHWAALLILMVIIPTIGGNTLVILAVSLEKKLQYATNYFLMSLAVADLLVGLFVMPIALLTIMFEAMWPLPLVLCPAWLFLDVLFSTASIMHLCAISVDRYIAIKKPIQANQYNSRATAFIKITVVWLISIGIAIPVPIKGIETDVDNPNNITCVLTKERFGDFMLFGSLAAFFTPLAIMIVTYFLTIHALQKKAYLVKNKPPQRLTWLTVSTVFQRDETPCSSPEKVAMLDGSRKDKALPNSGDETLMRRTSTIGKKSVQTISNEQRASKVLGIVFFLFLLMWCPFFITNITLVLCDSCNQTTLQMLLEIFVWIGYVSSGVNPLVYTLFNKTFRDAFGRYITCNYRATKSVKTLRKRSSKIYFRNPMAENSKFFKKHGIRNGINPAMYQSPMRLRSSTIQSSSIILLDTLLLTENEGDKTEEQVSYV
human SERT, sequence (P31645 whole entry): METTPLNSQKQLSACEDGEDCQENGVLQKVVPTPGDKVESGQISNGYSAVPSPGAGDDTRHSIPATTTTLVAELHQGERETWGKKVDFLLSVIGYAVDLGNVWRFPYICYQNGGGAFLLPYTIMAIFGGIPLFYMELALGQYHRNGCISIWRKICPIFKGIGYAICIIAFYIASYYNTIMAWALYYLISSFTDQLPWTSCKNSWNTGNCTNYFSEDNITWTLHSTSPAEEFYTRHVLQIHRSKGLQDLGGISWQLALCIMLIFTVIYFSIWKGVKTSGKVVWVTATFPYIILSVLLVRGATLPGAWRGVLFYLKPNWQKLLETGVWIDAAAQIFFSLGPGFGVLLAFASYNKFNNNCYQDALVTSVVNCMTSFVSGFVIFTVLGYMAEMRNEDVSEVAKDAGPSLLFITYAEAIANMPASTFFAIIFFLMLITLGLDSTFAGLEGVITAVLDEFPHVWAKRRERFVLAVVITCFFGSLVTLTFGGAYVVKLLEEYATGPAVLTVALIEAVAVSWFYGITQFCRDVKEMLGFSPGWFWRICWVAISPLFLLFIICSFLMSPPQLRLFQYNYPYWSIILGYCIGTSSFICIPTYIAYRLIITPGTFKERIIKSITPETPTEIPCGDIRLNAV
h5HT2A, sequence (P28223 whole entry): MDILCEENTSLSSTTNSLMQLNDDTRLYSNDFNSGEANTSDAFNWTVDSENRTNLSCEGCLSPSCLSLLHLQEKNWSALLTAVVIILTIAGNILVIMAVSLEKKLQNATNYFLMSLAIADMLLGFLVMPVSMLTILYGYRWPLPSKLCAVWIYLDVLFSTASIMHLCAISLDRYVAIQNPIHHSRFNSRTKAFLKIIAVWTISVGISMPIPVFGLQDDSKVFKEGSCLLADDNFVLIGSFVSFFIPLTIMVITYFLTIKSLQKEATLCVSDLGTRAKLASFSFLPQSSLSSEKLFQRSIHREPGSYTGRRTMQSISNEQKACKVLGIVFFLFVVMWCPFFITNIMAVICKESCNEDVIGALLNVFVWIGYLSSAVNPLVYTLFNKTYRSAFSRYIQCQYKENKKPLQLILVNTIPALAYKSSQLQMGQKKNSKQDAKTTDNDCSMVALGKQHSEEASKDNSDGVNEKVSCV
h5-HT6, sequence (P50406 whole entry): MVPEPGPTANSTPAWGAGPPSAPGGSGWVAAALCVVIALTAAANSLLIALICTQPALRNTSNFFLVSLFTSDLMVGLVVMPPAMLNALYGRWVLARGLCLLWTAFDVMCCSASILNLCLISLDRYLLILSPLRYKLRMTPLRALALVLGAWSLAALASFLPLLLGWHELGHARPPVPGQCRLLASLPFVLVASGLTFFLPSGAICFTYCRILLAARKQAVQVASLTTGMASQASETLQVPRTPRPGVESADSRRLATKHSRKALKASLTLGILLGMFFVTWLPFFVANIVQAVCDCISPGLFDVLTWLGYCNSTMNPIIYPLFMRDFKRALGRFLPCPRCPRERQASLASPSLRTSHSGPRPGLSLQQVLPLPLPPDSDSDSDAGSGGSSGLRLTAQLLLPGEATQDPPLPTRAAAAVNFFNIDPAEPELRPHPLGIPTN

| SMILES | Ki (rat 5-HT7 receptor; [1]) [nM] | Kb (r5-HT7 receptor; [2]) [nM] | Ki (h5-HT6; [3]) [nM] | Ki (human SERT) [nM] | Ki (h5HT2A) [nM] | Ki (h5HT2B) [nM] | Ki (h5HT2C) [nM] | Kb (r5-HT7 receptor) [nM] | Ki (rat 5-HT7 receptor; rat 5-HT7, HEK-293 membranes) [nM] | Ki (h5-HT6; h5-HT6, HEK-293 membranes, [3H]LSD) [nM] |
| --- | --- | --- | --- | --- | --- | --- | --- | --- | --- | --- |
| CC(Oc1ccc(Cl)cc1OC1CNC1)c1ccc(C(F)(F)F)o1 (racemic) [Example 146, (±)-3-[5-Chloro-2-[1-(5-trifluoromethyl-furan-2-yl)-ethoxy]-phenoxy]-azetidine] | 12 | 7.94 | 558 | 59 | – | – | – | – | – | – |
| Cc1ccc2c(c1)C(Oc1ccc(Cl)cc1OC1CNC1)CC2 (racemic) [Example 158, (±)-3-[5-Chloro-2-(6-methyl-indan-1-yloxy)-phenoxy]-azetidine] | 15 | 10 | – | 67 | 8 | 36 | 146 | – | – | – |
| Clc1ccc(OC2CCc3ccc(Cl)cc32)c(OC2CNC2)c1 (racemic) [Example 159, (±)-3-[5-Chloro-2-(6-chloro-indan-1-yloxy)-phenoxy]-azetidine] | 17 | 7.94 | – | 21 | 6 | 41 | 196 | – | – | – |
| C[C@@H](Oc1ccc(C(F)(F)F)cc1OC1CNC1)c1cccc(C(F)(F)F)c1 (stereo in doubt) [Example 200, 3-[5-Trifluoromethyl-2-[1-(3-trifluoromethyl-phenyl)-ethoxy]-phenoxy]-azetidine] | 31 | 158 | – | 224 | 605 | 7570 | 5000 | – | – | – |
| FC(F)(F)c1ccc(COc2ccc(Br)cc2OC2CNC2)o1 [Example 10, 3-[5-Bromo-2-(5-trifluoromethyl-furan-2-ylmethoxy)-phenoxy]-azetidine] | 7 | 6.31 | 50 | 39 | – | – | – | – | – | – |
| Clc1ccccc1COc1ccc(Br)cc1OC1CNC1 [Example 15, 3-[5-Bromo-2-(2-chloro-benzyloxy)-phenoxy]-azetidine trifluoroacetate] | 17 | 631 | 45 | 5 | – | – | – | – | – | – |
| Fc1cccc(COc2ccc(Br)cc2OC2CNC2)c1 [Example 17, 3-[5-Bromo-2-(3-fluoro-benzyloxy)-phenoxy]-azetidine trifluroacetate] | 10 | 50.1 | 39 | 4 | – | – | – | – | – | – |
| Cc1nc(COc2ccc(Cl)cc2OC2CNC2)cs1 [Example 29, 4-[2-(Azetidin-3-yloxy)-4-chloro-phenoxymethyl]-2-methyl-thiazole] | 83 | 126 | – | 27 | 225 | 529 | 1110 | – | – | – |
| Clc1cccc(COc2ccc(Cl)cc2OC2CNC2)c1 [Example 37, 3-[5-Chloro-2-(3-chloro-benzyloxy)-phenoxy]-azetidine] | 8 | 126 | 89 | 7 | – | – | – | – | – | – |
| CN1CC(Oc2cc(Cl)ccc2OCc2cccc(Cl)c2)C1 [Example 38, 3-[5-Chloro-2-(3-chloro-benzyloxy)-phenoxy]-1-methyl-azetidine] | 6 | 10 | 36 | 100 | – | – | – | – | – | – |
| FC(F)(F)c1ccc(COc2ccc(Cl)cc2OC2CNC2)o1 [Example 54, 3-[5-Chloro-2-(5-trifluoromethyl-furan-2-ylmethoxy)-phenoxy]-azetidine] | 6 | 7.94 | 77 | 28 | – | – | – | – | – | – |
| CN1CC[C@@H](Oc2cc(Cl)ccc2OCc2cccc(Cl)c2)C1 [Example 59, (R)-3-[5-Chloro-2-(3-chloro-benzyloxy)-phenoxy]-1-methyl-pyrrolidine] | 27 | 15.8 | 84 | 353 | – | – | – | – | – | – |
| Clc1cccc(COc2ccc(Br)cc2OC2CCNCC2)c1 [Example 65, 4-[5-Bromo-2-(3-chloro-benzyloxy)-phenoxy]-piperidine] | 11 | 126 | 41 | 14 | – | – | – | – | – | – |
| Clc1ccc(OCC2CCCCC2)c(OC2CNC2)c1 [Example 73, 3-(5-Chloro-2-cyclohexylmethoxy-phenoxy)-azetidine trifluoroacetate] | 23 | – | 12 | – | – | – | – | 251 | – | – |
| FC(F)(F)c1cccc(COc2ccc(Cl)cc2OC2CNC2)n1 [Example 79, 2-[2-(Azetidin-3-yloxy)-4-chloro-phenoxymethyl]-6-trifluoromethyl-pyridine] | 26 | 50.1 | – | 3 | 69 | 248 | 290 | – | – | – |
| C[C@@H](Oc1ccc(Br)cc1OC1CNC1)c1cccc(C(F)(F)F)c1 [Example 113, (R)-3-[5-Bromo-2-[1-(3-trifluoromethyl-phenyl)-ethoxy]-phenoxy]-azetidine] | 11 | – | 496 | – | 206 | 122 | 490 | – | – | – |
| FC(F)(F)c1ccc2c(c1)C(Oc1ccc(Cl)cc1OC1CNC1)CC2 (stereo not drawn) [Example 160, 3-[5-Chloro-2-(6-trifluoromethyl-indan-1-yloxy)-phenoxy]-azetidine] | 15 | 5.01 | – | 210 | 5 | 25 | 146 | – | – | – |
| FC(F)(COc1ccc(Cl)cc1OC1CNC1)c1ccccc1 [Example 184, 3-[5-Chloro-2-(2,2-difluoro-2-phenyl-ethoxy)-phenoxy]-azetidine] | 23 | 50.1 | – | 124 | 5 | 12 | 38 | – | – | – |
| Clc1ccc(C2(COc3ccc(Cl)cc3OC3CNC3)CCC2)cc1 [Example 188, 3-[5-Chloro-2-[1-(4-chloro-phenyl)-cyclobutylmethoxy]-phenoxy]-azetidine] | 34 | – | – | 65 | 8 | 28 | 143 | – | – | – |
| COc1cccc(CCOc2ccc(Cl)cc2OC2CNC2)c1 [Example 190, 3-[5-Chloro-2-[2-(3-methoxy-phenyl)-ethoxy]-phenoxy]-azetidine] | 8 | – | – | 211 | 14 | 69 | 56 | – | – | – |
| Fc1cccc(CCOc2ccc(Cl)cc2OC2CNC2)c1 [Example 191, 3-[5-Chloro-2-[2-(3-fluoro-phenyl)-ethoxy]-phenoxy]-azetidine] | 8 | – | – | 7 | 8 | 11 | 53 | – | – | – |
| Clc1ccc(CCOc2ccc(Cl)cc2OC2CNC2)cc1 [Example 192, 3-[5-Chloro-2-[2-(4-chloro-phenyl)-ethoxy]-phenoxy]-azetidine] | 8 | – | – | 88 | 9 | 22 | 140 | – | – | – |
| Fc1ccc(CCOc2ccc(Cl)cc2OC2CNC2)cc1 [Example 193, 3-[5-Chloro-2-[2-(4-fluoro-phenyl)-ethoxy]-phenoxy]-azetidine] | 5 | – | – | 9 | 11 | 14 | 71 | – | – | – |
| COc1ccc(CCOc2ccc(Cl)cc2OC2CNC2)cc1 [Example 194, 3-[5-Chloro-2-[2-(4-methoxy-phenyl)-ethoxy]-phenoxy]-azetidine] | 4 | – | – | 141 | 4 | 195 | 81 | – | – | – |
| FC(F)(F)c1ccc(OCc2ccc(C(F)(F)F)o2)c(OC2CNC2)c1 [Example 199, 3-[5-Trifluoromethyl-2-(5-trifluoromethyl-furan-2-ylmethoxy)-phenoxy]-azetidine] | 18 | 39.8 | – | 128 | 103 | 1220 | 526 | – | – | – |
| FC(F)(F)c1ccc(OCc2ccccc2)c(OC2CNC2)c1 [Example 201, hydrochloride] | 31 | 50.1 | – | 56 | 67 | 184 | 498 | – | – | – |
| Brc1ccc(Oc2ccccc2)c(OC2CNC2)c1 [Example 244, 3-(5-Bromo-2-phenoxy-phenoxy)-azetidine] | – | 251 | – | 5000 | – | – | – | – | 20 | 46 |

— US9981909B2 (Janssen Pharmaceutica NV, priority 2008, dated 2018)
